This passage reports IC50 results from US9096592B2, “Bicyclic aza heterocycles, and use thereof” (BAYER INTELLECTUAL PROPERTY GMBH, priority 2010, dated 2015).

pIC50: −log10 of the molar value. Structures can show the parent of a compound that is named as a salt.

The assay deals with aorta rings. As to the kind of experiment: Vasorelaxant action in vitro (phenylephrine-contracted rabbit aorta rings, organ bath). As to conditions: Oryctolagus cuniculus; concentration needed to reduce the phenylephrine contraction of rabbit aorta rings by 50%. Here is the method: B-1. Vasorelaxant Action In Vitro
Rabbits are stunned by a blow to the neck and exsanguinated. The aorta is removed, freed from adhering tissue and divided into rings of width 1.5 mm, which are placed individually under prestress into 5 ml organ baths with carbogen-sparged Krebs-Henseleit solution at 37° C. having the following composition (each mM): sodium chloride 119; potassium chloride: 4.8; calcium chloride dihydrate: 1; magnesium sulfate heptahydrate: 1.4; potassium dihydrogenphosphate: 1.2; sodium hydrogencarbonate: 25; glucose: 10. The contractile force is determined with Statham UC2 cells, amplified and digitalized using A/D transducers (DAS-1802 HC, Keithley Instruments Munich), and recorded in parallel on linear recorders. To obtain a contraction, phenylephrine is added to the bath cumulatively in increasing concentration. After several control cycles, the substance to be studied is added in increasing dosage each time in every further run, and the magnitude of the contraction is compared with the magnitude of the contraction attained in the last preceding run. This is used to calculate the concentration needed to reduce the magnitude of the control value by 50% (IC50 value). The standard administration volume is 5 μl; the DMSO content in the bath solution corresponds to 0.1%.

As for `Cn1c(=O)[nH]c2nc(-c3nn(Cc4ccccc4F)c4ncccc34)nc(C#CC(C)(C)O)c21` [Example 135, 2-[1-(2-Fluorobenzyl)-1H-pyrazolo[3,4-b]pyridin-3-yl]-6-(3-hydroxy-3-methylbut-1-yn-1-yl)-7-methyl-7,9-dihydro-8H-purin-8-one], the pIC50 was 6.58. For `Cn1c(=O)[nH]c2nc(-c3nn(Cc4ccccc4F)c4ncccc34)nc(C(C)(C)O)c21` [Example 136, 2-[1-(2-Fluorobenzyl)-1H-pyrazolo[3,4-b]pyridin-3-yl]-6-(2-hydroxypropan-2-yl)-7-methyl-7,9-dihydro-8H-purin-8-one] the value was 6.94; for `O=c1[nH]c2nc(-c3nn(Cc4ccccc4F)c4ncccc34)ncc2n1CCN1CCOCC1` [Example 142, 2-[1-(2-Fluorobenzyl)-1H-pyrazolo[3,4-b]pyridin-3-yl]-7-[2-(morpholin-4-yl)ethyl]-7,9-dihydro-8H-purin-8-one], 7.01.

Take `O=c1[nH]c2nc(-c3nn(Cc4ccccc4F)c4ncccc34)ncc2n1C1CCN(CC(F)F)CC1` [Example 145, 7-[1-(2,2-Difluoroethyl)piperidin-4-yl]-2-[1-(2-fluorobenzyl)-1H-pyrazolo[3,4-b]pyridin-3-yl]-7,9-dihydro-8H-purin-8-one]: the pIC50 was 6.77. As for `CS(=O)(=O)CCn1c(=O)[nH]c2nc(-c3nn(Cc4ccccc4F)c4ncc(F)cc34)ncc21` [Example 146, 2-[5-Fluoro-1-(2-fluorobenzyl)-1H-pyrazolo[3,4-b]pyridin-3-yl]-7-[2-(methylsulfonyl)ethyl]-7,9-dihydro-8H-purin-8-one], the figure is 6.38; as for `O=c1[nH]c2nc(-c3nn(Cc4ccccc4F)c4ncccc34)ncc2n1C1CNC1` [Example 147, 7-(Azetidin-3-yl)-2-[1-(2-fluorobenzyl)-1H-pyrazolo[3,4-b]pyridin-3-yl]-7,9-dihydro-8H-purin-8-one hydrochloride], 6.24; as for `O=c1[nH]c2nc(-c3nn(Cc4ccccc4F)c4ncccc34)ncc2c(=O)n1CC(F)(F)F` [Example 149, 7-[1-(2-Fluorobenzyl)-1H-pyrazolo[3,4-b]pyridin-3-yl]-3-(2,2,2-trifluoroethyl)pyrimido[4,5-d]pyrimidine-2,4(1H,3H)-dione], 6.34. As for `O=c1[nH]c(=O)c2cnc(-c3nn(Cc4ccccc4F)c4ncccc34)nc2[nH]1` [Example 150, 7-[1-(2-Fluorobenzyl)-1H-pyrazolo[3,4-b]pyridin-3-yl]pyrimido[4,5-d]pyrimidine-2,4(1H,3H)-dione], the figure is 6.32. As for `CCc1nc(=O)c2cnc(-c3nn(Cc4ccccc4F)c4ncccc34)nc2[nH]1` [Example 153, 2-Ethyl-7-[1-(2-fluorobenzyl)-1H-pyrazolo[3,4-b]pyridin-3-yl]pyrimido[4,5-d]pyrimidin-4(1H)-one], the figure is 5.89.
